# According to US20080072640A1, “Insecticidal Fertilizer Solids and Method of Preparation” (priority 2006, published 2008):
# Assay: Solubility of imidacloprid in organic solvents
# Type: physicochemical
# Description: U.S. Pat. No. 5,783,203 mentions acetone as a solvent for imidacloprid. […] Using a 6 wt % solution imidacloprid in acetone would mean applying 1.67 wt % of the solution on the fertilizer based on the combined weight of the fertilizer and the solution to achieve a product with 0.10 wt % imidacloprid. This would be very difficult to achieve a dry product. Fertilizer products with 0.2 wt % and 0.5 wt % imidacloprid would require 3.33 wt % and 8.33 wt % respectively of the imidacloprid solution absorbed onto the fertilizer; concentrations which are not likely feasible in acetone. In addition, acetone is highly flammable which would make processing very difficult and expensive.
# Preferably, the solvent system for use in the present invention consists essentially of either N-methyl-2-pyrrolidone or DMSO. […] Amine-stabilized or caustic-stabilized N-vinyl-pyrrolidone can form a solution with imidacloprid in an amount of about 15 wt % at 25° C. […] The solvent system can consist essentially of N-methyl-2-pyrrolidone, DMSO or a mixture of either N-methyl-2-pyrrolidone or DMSO with one or more co-solvents.
# An imidacloprid solution was prepared by dissolving imidacloprid in dimethyl sulfoxide (DMSO). […] The resulting solution can be sprayed onto a particulate fertilizer in an amount to provide a dry particulate composition containing about 0.1 wt % imidacloprid.
# The solubility of imidacloprid TGAI in N-methyl-2-pyrrolidone (NMP) was investigated. NMP has a favorable flash point of 187° F. (closed cup), mild odor, and is slow to volatilize, which are all very favorable properties. […] A 30 wt % solution can easily be prepared to spray onto fertilizer solids. Spraying a 0.50 wt % solution on fertilizer would achieve 0.15 wt % active ingredient. Spraying a 0.67 wt % solution and 1.67% wt % solution would achieve 0.20 wt % and 0.50 wt % active ingredient, respectively. These are highly plausible concentrations for use.
smiles,measurement,setting,value
"O=[N+]([O-])NC1=NCCN1Cc1ccc(Cl)nc1 [imidacloprid, 1-((6-chloro-3-pyridinyl)methyl)-N-nitro-2-imidazolidinimine]",solubility of imidacloprid in NMP,"solvent N-methyl-2-pyrrolidone (NMP), room temperature",~35 wt %
same,solubility of imidacloprid in N-methyl-2-pyrrolidone,"solvent N-methyl-2-pyrrolidone, 25° C.",about 32 wt %
same,solubility of imidacloprid in acetone,solvent acetone,less than 7 wt %
same,solubility of imidacloprid in N-vinyl-pyrrolidone,"solvent amine-stabilized or caustic-stabilized N-vinyl-pyrrolidone, 25° C.",about 15 wt %
same,solubility of imidacloprid in DMSO,"solvent dimethyl sulfoxide, room temperature of about 23° C.",about 32 wt %
